According to ChEMBL document CHEMBL1201862, “PubChem BioAssay data set” (2004):
Activity calls are given as the source filed them.

Experiments:
[1] = system: P388/ADR; test: cells; format: functional; details: Mus musculus
[2] = system: SN12K1; test: cells; format: functional; details: Homo sapiens
[3] = system: P388; test: cells; format: functional; details: Mus musculus
[4] = system: H9c2; test: cells; format: functional, cell-based; details: Rattus norvegicus, H9c2, Myocardium;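 further: confirmatory concentration-response retest of ultra-high-throughput screening hits for modulation of myocardial damage; cell death induced by hydrogen peroxide oxidative stress; compound pretreatment for 60 min then peroxide exposure for 2 h; potency is for protecting the cells against peroxide damage rather than for killing them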
[5] = target: T1, Protein skinhead-1 (Caenorhabditis elegans, UniProt P34707); format: functional
T1 sequence (P34707 whole entry): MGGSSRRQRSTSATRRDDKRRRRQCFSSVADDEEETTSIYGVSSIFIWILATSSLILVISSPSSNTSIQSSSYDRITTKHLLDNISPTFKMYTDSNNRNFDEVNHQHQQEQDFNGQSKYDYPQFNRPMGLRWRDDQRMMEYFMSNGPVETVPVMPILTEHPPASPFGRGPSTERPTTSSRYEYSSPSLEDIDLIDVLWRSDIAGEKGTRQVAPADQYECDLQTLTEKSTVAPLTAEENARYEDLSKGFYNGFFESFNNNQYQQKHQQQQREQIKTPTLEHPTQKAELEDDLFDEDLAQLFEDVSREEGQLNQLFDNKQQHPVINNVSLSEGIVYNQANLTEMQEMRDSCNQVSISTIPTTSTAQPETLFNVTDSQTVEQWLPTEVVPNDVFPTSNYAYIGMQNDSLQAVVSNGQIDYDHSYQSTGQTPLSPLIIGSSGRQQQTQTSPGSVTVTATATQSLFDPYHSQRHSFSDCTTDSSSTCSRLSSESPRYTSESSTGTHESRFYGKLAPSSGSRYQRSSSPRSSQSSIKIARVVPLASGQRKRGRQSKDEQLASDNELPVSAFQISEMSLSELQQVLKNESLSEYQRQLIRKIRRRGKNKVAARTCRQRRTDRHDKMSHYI

[6] = reduction of Shn3 3'UTR-driven luciferase in osteoblasts – cell-based, Clone20 osteoblasts, firefly luciferase, cherry-picked, dose response (AID 624132); format: functional;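 further: firefly luciferase luminescence from reporter carrying the Shn3 3'UTR in osteoblasts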
[7] = non-specific 3'UTR reporter inhibition in Clone20-Shn3RL – cell-based, Renilla luciferase, cherry-picked, counter-screen for Shn3 inhibitor project, dose response (AID 624133); format: functional
[8] = target: Cytochrome P450 2D6 (Homo sapiens, UniProt P10635);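 further: CYP2D6 member of a cytochrome P450 panel assay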
[9] = system: Streptococcus; test: GAS UMAA2166 growth inhibition – luminescence, BacTiterGlo, counter-screen for streptokinase expression inhibitor project, dose response (AID 1915); format: functional, organism-based;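 further: potency for reduction of bacterial viability or growth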
[10] = NIH3T3 cell viability loss – ATP luminescence, mouse fibroblasts, counter-screen, dose response (AID 2010); format: functional, cell-based;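 further: cells exposed to compound for about 90 hours before reading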
[11] = target: T2, Streptokinase A (Streptococcus pyogenes serotype M1, UniProt P10520); test: viability-normalized secreted streptokinase activity reduction – plasminogen activation absorbance, OD405, dose response (AID 1914); format: functional, Streptococcus pyogenes M1 GAS;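 further: secreted streptokinase activity via plasminogen activation per viability signal from cell pellet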
T2 sequence (P10520 whole entry): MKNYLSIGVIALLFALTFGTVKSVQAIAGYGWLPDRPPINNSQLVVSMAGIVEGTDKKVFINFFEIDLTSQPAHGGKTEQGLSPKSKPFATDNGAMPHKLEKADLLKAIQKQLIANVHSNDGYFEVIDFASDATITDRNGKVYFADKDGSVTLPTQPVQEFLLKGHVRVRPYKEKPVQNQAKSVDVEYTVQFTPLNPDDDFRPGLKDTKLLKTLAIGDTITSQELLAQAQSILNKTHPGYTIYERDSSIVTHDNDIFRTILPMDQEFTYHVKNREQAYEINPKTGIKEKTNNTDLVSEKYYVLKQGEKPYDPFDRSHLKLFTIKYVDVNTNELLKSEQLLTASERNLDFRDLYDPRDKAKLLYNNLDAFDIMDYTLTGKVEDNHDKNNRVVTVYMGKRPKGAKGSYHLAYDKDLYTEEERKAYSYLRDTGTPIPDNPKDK

[12] = system: Streptococcus sp. 'group A'; test: Streptococcus pyogenes SK(-)GAS viability under kanamycin – luminescence, BacTiterGlo, confirmation, counter-screen for streptokinase expression inhibitor project, dose response (AID 1900); format: functional, organism-based
[13] = loss of viability in HepG2 cells – cell-based, CellTiter-Glo, cherry-picked, cytotoxicity control for Shn3 inhibitor project, dose response (AID 624134); format: functional
[14] = Trypanosoma cruzi growth suppression in host cells – NIH3T3 host cells, beta-gal luminescence, confirmation (AID 2044); format: functional, cell-based;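 further: intracellular parasites grown in NIH/3T3 mouse fibroblasts as host cells; luminescent beta-galactosidase reporter signal from transgenic T. cruzi replicating inside host cells; inhibitors lower the luminescence signal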
[15] = target: T3, Polyadenylate-binding protein 1 (Homo sapiens, UniProt P11940); test: MLLE domain peptide-binding blockers, IC50 – biochemical, fluorescence polarization, FITC-PAM2 peptide, dose response (AID 602259); format: functional; details: read-out: IC50_Mean
[16] = target: T3, Polyadenylate-binding protein 1; test: MLLE binding blockers, Cy5 peptide tracer – biochemical, fluorescence polarization, Cy5-PAM2 peptide, secondary, miRNA deadenylation inhibitor project, dose response (AID 602260); format: functional; details: read-out: IC50_Mean
[17] = target: T4, Cytochrome P450 1A2 (Homo sapiens, UniProt P05177);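 further: PubChem cytochrome P450 panel assay, CYP1A2 panel member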
T4 sequence (P05177 whole entry): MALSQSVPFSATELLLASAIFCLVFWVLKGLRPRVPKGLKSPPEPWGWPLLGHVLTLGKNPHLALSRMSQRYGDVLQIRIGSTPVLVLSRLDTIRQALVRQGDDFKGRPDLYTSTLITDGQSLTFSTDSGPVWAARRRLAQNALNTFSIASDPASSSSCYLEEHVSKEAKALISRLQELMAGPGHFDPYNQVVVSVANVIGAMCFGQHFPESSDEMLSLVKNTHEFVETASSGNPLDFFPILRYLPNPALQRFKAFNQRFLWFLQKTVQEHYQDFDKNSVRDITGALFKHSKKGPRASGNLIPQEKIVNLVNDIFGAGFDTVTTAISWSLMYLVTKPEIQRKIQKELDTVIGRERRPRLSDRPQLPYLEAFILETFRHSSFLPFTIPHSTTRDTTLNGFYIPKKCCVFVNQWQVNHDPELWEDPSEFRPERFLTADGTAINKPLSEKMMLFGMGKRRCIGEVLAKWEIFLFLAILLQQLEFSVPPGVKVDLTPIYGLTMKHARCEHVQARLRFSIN

[18] = target: Cytochrome P450 2C9 (Homo sapiens, UniProt P11712)
[19] = Luminescence Cell-Based Dose Response HTS to Identify Activators of Luciferase Translation or Activity in H4 […] Cells. [Related pubchem assays: 1829 (Project Summary), 1814 (Primary HTS)]; format: functional
[20] = system: H4; test: Luminescence Cell-Based Dose Response HTS to Identify Activators of 5'UTR Stem-Loop Driven Prion Protein mRNA Translation in H4 Neuroglioblastoma Cells. [Related pubchem assays: 1829 (Project Summary), 1814 (Primary HTS)]; format: functional; details: Homo sapiens

T3 sequence (P11940 whole entry, the tested form may be a part): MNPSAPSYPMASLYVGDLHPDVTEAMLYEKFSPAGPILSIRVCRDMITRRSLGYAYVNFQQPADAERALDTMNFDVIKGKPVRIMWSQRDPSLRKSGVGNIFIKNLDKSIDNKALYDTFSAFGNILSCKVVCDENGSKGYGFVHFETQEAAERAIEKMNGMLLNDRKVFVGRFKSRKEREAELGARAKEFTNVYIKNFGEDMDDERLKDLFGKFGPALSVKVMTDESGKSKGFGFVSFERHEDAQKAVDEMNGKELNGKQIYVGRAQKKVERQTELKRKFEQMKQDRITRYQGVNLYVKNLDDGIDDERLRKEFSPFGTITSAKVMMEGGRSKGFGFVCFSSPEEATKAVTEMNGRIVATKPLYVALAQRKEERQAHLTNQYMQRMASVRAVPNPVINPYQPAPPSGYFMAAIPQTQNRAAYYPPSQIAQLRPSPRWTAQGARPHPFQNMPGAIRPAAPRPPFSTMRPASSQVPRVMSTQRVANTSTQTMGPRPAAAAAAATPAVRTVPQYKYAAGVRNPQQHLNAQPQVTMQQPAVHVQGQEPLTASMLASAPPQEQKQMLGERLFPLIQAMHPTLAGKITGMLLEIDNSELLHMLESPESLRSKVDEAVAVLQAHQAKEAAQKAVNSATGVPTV
Sequence of Cytochrome P450 2D6 (P10635 whole entry): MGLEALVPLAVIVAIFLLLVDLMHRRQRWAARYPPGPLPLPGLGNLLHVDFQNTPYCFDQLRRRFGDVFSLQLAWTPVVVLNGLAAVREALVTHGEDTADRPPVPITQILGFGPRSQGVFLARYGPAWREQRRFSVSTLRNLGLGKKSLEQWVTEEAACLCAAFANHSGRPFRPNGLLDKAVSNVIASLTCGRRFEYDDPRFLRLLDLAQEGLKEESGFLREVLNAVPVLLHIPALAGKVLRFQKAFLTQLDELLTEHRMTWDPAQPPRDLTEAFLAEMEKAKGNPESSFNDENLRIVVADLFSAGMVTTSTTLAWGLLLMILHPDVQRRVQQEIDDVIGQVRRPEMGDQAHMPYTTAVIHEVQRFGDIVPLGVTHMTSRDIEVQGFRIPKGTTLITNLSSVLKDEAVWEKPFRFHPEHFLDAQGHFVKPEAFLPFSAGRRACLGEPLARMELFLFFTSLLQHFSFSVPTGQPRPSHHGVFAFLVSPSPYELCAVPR
Sequence of Cytochrome P450 2C9 (P11712 whole entry): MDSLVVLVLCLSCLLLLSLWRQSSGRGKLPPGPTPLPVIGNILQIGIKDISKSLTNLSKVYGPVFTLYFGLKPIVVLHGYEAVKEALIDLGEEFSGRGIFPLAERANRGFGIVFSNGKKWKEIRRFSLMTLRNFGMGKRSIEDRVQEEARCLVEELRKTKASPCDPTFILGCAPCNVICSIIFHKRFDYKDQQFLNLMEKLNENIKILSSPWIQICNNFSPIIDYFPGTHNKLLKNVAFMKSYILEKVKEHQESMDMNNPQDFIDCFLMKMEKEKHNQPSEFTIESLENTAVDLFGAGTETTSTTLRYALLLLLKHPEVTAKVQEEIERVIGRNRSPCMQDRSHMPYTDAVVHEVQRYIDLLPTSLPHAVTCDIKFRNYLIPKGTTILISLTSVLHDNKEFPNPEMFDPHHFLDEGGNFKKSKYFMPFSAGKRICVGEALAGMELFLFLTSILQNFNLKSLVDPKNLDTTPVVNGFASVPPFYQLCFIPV

O=C(O)C1CCC(=O)N1S(=O)(=O)c1ccccc1 (centres undefined)
GI50 [1]: > 100 µM (inactive) | GI50 [2]: > 100 µM (inactive) | GI50 [3]: > 100 µM (inactive)

COc1cccc(CN2CCN(C(=O)c3cc(-c4cccnc4)nc4ccc(C)cc34)CC2)c1
IC50 [4]: 11.6 µM (active)

Cc1cc2ccccn2c1C(=O)Nc1cccc(Cl)c1
IC50 [5]: > 100 µM (inactive)

O=C(/C=C/c1ccccc1)NC(NC(=S)Nc1ccc(Cl)cc1)C(Cl)(Cl)Cl (centres undefined)
AC50 [6]: 5.13 µM (active) | AC50 [7]: 30.4 µM (active) | AC50 [8]: 7.94 µM (inconclusive) | EC50 [9]: > 150 µM (not active) | EC50 [10]: > 60 µM (not active) | EC50 [11]: > 150 µM (not active) | EC50 [12]: 5.79 µM (active) | AC50 [13]: 26.7 µM (active) | EC50 [14]: 1.08 µM (active)

Cc1c(NC(=O)Cn2[nH]c(=O)c3ccccc3c2=O)c(=O)n(-c2ccccc2)n1C
IC50 [4]: 38.5 µM (inactive)

COc1ccccc1C(=O)NCCn1ccc2ccccc21
IC50 [15]: > 66 µM (inactive) | IC50 [16]: > 66 µM (inactive)

O=C(NC(=S)Nc1ncccn1)c1ccccc1Cl
IC50 [15]: > 66 µM (inactive) | IC50 [16]: > 66 µM (inactive)

CC(C)c1nc2oc3ccccc3c(=O)c2c(=O)n1-c1ccccc1
AC50 [17]: 39.8 µM (inconclusive) | AC50 [18]: 1.78 µM (inconclusive) | EC50 [19]: 63.4 µM (active)

CCCCOc1ccc(C(=O)OC2CC(C)N(C)CC2C)cc1 (centres undefined)
IC50 [5]: 27.6 µM (active)

O=NN(CCCl)C(=O)NCCCl [CARMUSTINE]
GI50 [1]: 7.29 µM (inactive) | GI50 [2]: 58.3 µM (inactive) | GI50 [3]: 6.62 µM (inactive)

Cc1ccc(OP2(=O)Oc3ccc4ccccc4c3CN2c2ccc(Cl)cc2)cc1C (centres undefined)
GI50 [1]: > 100 µM (inactive) | GI50 [2]: > 100 µM (inactive) | GI50 [3]: > 100 µM (inactive)

O=C(CN(Cc1ccco1)C(=O)CNS(=O)(=O)c1ccc(Cl)cc1)NC1CCCCC1
IC50 [5]: > 100 µM (inactive)

N#Cc1c(O)nc(-c2ccco2)c2c1CCCC2
IC50 [15]: > 66 µM (inactive) | IC50 [16]: > 66 µM (inactive)

Brc1ccc2nc(N3CCCC3)sc2c1
IC50 [5]: 79.4 µM (inactive)

C1CN1c1nc(N2CC2)nc(N2CC2)n1
GI50 [1]: 0.466 µM (active) | GI50 [2]: 5.21 µM (inactive) | GI50 [3]: 0.465 µM (active)

CC(C)C1C(=O)N(Cc2cn(CCC3OCCO3)nn2)CCS(=O)(=O)N1Cc1ccc(-c2ccc(Cl)cc2)cc1 (centres undefined)
AC50 [6]: 2.13 µM (active) | AC50 [7]: 2.83 µM (active) | AC50 [13]: > 70 µM (inactive)

Brc1ccc(OCc2n[nH]c(-c3ccccn3)n2)cc1
IC50 [5]: > 100 µM (inactive)

CCN(c1c(C)n(C)n(-c2ccccc2)c1=O)S(C)(=O)=O
IC50 [15]: > 66 µM (inactive) | IC50 [16]: > 66 µM (inactive)

Cc1cnc(C(=O)Nc2ccccc2-c2ccc(C)o2)cn1
IC50 [5]: > 100 µM (inactive)

CCOc1cccc(-c2nn3c(-c4ccccn4)nnc3s2)c1
IC50 [4]: > 79 µM (inactive)

COc1ccc(C(C)=O)cc1COC(=O)Cc1nnc(O)c2ccccc12
IC50 [4]: > 79 µM (inactive)

O=[N+]([O-])c1cnccc1-n1nnc2ccccc21
GI50 [2]: 27.7 µM (inactive) | GI50 [3]: 7.96 µM (inactive)

CCN1C(=O)[C@H]2[C@H]3CN=C(SCC(=O)c4ccccc4)N3[C@@](C)(C(=O)OC)[C@H]2C1=O
IC50 [15]: > 66 µM (inactive) | IC50 [16]: > 66 µM (inactive)

CCC(OC(=O)CC1Sc2ccccc2NC1=O)C(=O)NCC1CCCO1 (centres undefined)
IC50 [15]: > 66 µM (inactive) | IC50 [16]: > 66 µM (inactive)

O=C(Nc1ccc(N2CCOCC2)c(Cl)c1)c1ccc([N+](=O)[O-])o1
AC50 [6]: 6.23 µM (active) | AC50 [7]: 14.7 µM (active) | AC50 [13]: 24.9 µM (active)

COc1ccccc1C(=O)Nc1nc(-c2ccc3c(c2)OCCO3)cs1
IC50 [4]: > 79 µM (inactive)

COc1ccccc1OCC(=O)Nc1sc2c(c1C(=O)NCC1CCCO1)CCC2 (centres undefined)
IC50 [4]: 30.4 µM (inactive)

CCOC(=O)C[n+]1ccc2c([nH]c3cc(OC)ccc32)c1C
GI50 [1]: 35.1 µM (inactive) | GI50 [2]: > 80.2 µM (inactive) | GI50 [3]: 38.9 µM (inactive)

Fc1ccc(-n2nnc(-c3nccs3)n2)cc1
IC50 [5]: 22.8 µM (active)

O=S(=O)(c1ccc(Cl)cc1)c1cc(O)ccc1O
IC50 [4]: 12.4 µM (active)

c1ccc2cc3c(cc2c1)OP1(Oc2cccc4cccnc24)(O3)Oc2cc3ccccc3cc2O1
GI50 [1]: 1.42 µM (inactive) | GI50 [2]: 3.31 µM (inactive) | GI50 [3]: 1.2 µM (inactive)

COc1ccc2oc(=O)c(C(=O)OCc3ccccc3)cc2c1
IC50 [15]: > 66 µM (inactive) | IC50 [16]: > 66 µM (inactive)

CN(C)S(=O)(=O)c1cccc(NC(=O)c2cccc(S(=O)(=O)N3CCc4ccccc43)c2)c1
AC50 [6]: 3.92 µM (active) | AC50 [7]: 11.7 µM (active) | AC50 [13]: 60.9 µM (active)

O=C(NN=C(NS(=O)(=O)c1ccc(Cl)cc1)c1ccccc1)c1cccc(Cl)c1
EC50 [20]: > 120 µM (not active) | EC50 [19]: 7.54 µM (active)

S=C(NCCCCCCNC(=S)Nc1c2ccccc2nc2ccccc12)Nc1c2ccccc2nc2ccccc12
GI50 [1]: 65 µM (inactive) | GI50 [2]: 6.22 µM (inactive) | GI50 [3]: 44.5 µM (inactive)

CS(=O)(=O)c1ccc(C(=O)OCC(=O)Nc2cccnc2Cl)cc1[N+](=O)[O-]
AC50 [6]: 9.09 µM (active) | AC50 [7]: 12.9 µM (active) | AC50 [13]: > 70 µM (inactive)

C=CC1(NC(=O)c2ccccc2)CCC(C(C)(C)C)CC1 (centres undefined)
GI50 [1]: 22.2 µM (inactive) | GI50 [2]: 32.4 µM (inactive) | GI50 [3]: 12.2 µM (inactive)

CC(=O)C1=C(O)C(=O)N(C)C1c1ccccc1[N+](=O)[O-] (centres undefined)
IC50 [15]: > 66 µM (inactive) | IC50 [16]: > 66 µM (inactive)

COc1cc2c(C#CCCO)c(-c3ccsc3)oc(=O)c2cc1OC
IC50 [4]: 20.7 µM (active)

Cc1cc(OCC(O)CN2CCN(C)CC2)ccc1C(C)C (centres undefined)
IC50 [5]: > 100 µM (inactive)

CSCSCC(N)CO.Cc1[nH]c(=O)[nH]c(=O)c1/C=C/C(=O)O
GI50 [1]: > 625 µM (inactive) | GI50 [2]: > 625 µM (inactive) | GI50 [3]: > 625 µM (inactive)

Cc1c(Cl)cccc1N=C(S)NCCc1ccc(S(N)(=O)=O)cc1
IC50 [15]: > 66 µM (inactive) | IC50 [16]: > 66 µM (inactive)
